# Measurements from US12661385B2, “Modulation of mTORCI activity and autophagy via CIB2-RHEB interaction” (University of Maryland, Baltimore, priority 2018, dated 2026).
# T1: TSC1 (Homo sapiens, UniProt Q92574)
# T1 construct: host or cells: COS-7
# T1 sequence (Q92574 1-1164): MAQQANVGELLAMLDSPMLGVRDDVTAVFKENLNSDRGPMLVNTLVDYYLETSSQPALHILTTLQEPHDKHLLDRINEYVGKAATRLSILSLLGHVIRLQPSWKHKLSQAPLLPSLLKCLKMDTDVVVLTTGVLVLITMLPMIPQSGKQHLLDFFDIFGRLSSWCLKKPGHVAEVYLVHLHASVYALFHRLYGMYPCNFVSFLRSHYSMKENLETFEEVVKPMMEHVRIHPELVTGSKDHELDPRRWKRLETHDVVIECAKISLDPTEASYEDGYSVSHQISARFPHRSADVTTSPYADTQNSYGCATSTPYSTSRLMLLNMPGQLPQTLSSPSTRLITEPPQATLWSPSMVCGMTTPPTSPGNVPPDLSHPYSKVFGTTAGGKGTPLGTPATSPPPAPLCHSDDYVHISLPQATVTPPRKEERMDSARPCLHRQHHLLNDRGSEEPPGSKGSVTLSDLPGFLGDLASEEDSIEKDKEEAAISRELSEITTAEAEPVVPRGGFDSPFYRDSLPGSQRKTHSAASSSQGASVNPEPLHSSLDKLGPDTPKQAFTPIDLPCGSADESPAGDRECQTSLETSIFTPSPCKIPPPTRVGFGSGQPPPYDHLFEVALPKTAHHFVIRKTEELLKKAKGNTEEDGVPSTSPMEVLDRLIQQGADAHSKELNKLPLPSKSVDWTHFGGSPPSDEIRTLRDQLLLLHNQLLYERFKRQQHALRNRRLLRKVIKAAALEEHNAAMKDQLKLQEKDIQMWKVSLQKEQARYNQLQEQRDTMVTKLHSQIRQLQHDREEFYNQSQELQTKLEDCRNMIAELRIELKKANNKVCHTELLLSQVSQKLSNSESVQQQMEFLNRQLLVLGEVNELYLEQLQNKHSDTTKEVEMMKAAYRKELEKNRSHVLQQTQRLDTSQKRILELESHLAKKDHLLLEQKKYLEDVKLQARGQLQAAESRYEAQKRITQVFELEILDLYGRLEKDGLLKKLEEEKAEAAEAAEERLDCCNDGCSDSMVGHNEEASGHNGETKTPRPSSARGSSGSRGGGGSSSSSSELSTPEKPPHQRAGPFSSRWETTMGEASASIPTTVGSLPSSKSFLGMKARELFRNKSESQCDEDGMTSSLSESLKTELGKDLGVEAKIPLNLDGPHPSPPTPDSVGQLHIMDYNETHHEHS
# Assays:
# [1] = tested on: RPE-specific Cib2^KO mice; assay: TEM analysis of the RPE at the conclusion of treatment; assay type: in vivo, mouse; conditions: 9-cis retinal-treated RPE-specific Cib2^KO mice
# Procedure: FIG. 4. […] Scale bar. 2 μm.
# Sections for EM were prepared as previously described 48. Briefly, hemisected eyecups were rinsed in buffer and postfixed in 2% osmium tetroxide and 1.5% potassium ferrocyanide in dH2O for 2 hr, dehydrated in a graded ethanol series, and embedded in Epon-Araldite (Electron Microscopy Sciences, Hatfield, PA). Semi-thin sections (4 μm) were cut and stained with 1% cresyl violet. Ultra-thin sections (90 nm) were cut on an ultramicrotome (Ultracut E 701704, Reichert-Jung, Buffalo, NY) using a diamond knife (Micro Star Technologies, Inc., Huntsville, TX), collected on copper grids, counterstained with 4% methanolic uranyl acetate (Electron Microscopy Sciences, Hatfield, PA), and outer retinal morphology examined using a transmission electron microscope (TEM; Model 300: Phillips, Eindhoven, The Netherlands). Photomicrographs were captured with a digital camera (15 megapixel digital camera, Scientific Instruments and Applications, Duluth, GA) and Maxim DL Version 5 software (Diffraction Limited, Ottawa, Canada).
# [2] = tested on: RPE-specific Cib2^KO mice; conditions: mouse, in vivo
# Description: For comparison, untreated WT control mice (black squares) are replotted from FIG. 6b. c, Schematic of treatment paradigm in RPE-specific Cib2^KO injected with 9-cis retinal and control mice injected with vehicle. d. […] TEM micrographs for indicated genotype at the end of the treatment paradigm as outlined in c (n=3/genotype).
# To further assess the potential clinical translatability of exogenous retinoids, we tested an extended treatment paradigm following injection of 9-cis retinal in RPE-specific Cib2^KO mice (FIG. 4c). […] To assess medium-term efficacy of exogenous retinoid therapy, we extended the paradigm further by one month.
# Electroretinograms (ERG) were recorded as earlier described^14 with modifications. Mice, overnight dark-adapted, were anesthetized with ketamine-xylazine (100 mg/kg and 10 mg/kg, respectively) and pupils were dilated with 1% Tropicamide. A gold wire lens electrode was placed on the cornea, a platinum reference electrode in the mouth, and a ground electrode on the tail. To assess rod-driven responses, increasing scotopic stimuli were presented sequentially (0.003962233 to 3.147314 cd×s/m2) with 5-60 sec intervals using UTAS BigShot (LKC Technologies, Gaithersburg, MD). At least 3 waveforms per intensity were averaged. For cone function evaluation, photopic responses to a single bright flash (3.15 cd×s/m2) under a steady rod-suppressing field of cd×s/m2. Waves were analyzed using EM for Windows software (LKC Technologies).
# TSC1 = target: T1, TSC1; assay: NanoSPD (nanoTRAP) interaction assay in COS-7 cells, TSC1; assay type: binding; conditions: FLAG-tagged TSC1
# Description: (§1) FIG. 14. […] Arrowheads indicate filopodia tip accumulation of hCIB2-eGFP, * indicates no accumulation of indicted constructs in the red channel. c. Representative confocal images (top panel) showing CIB2 (green) interaction with Rheb (red) and Raptor (red) using NanoTRAP assay. […] Arrowheads indicate filopodia tip accumulation of indicated constructs, * indicates no accumulation of indicted construct in the red or far-red channel. Scale bar: 10 μm. d. Quantification for nanoTRAP assay for images shown above. *** p<0.001 by one-way ANOVA. e, Co-IP experiments show interaction between Raptor and CIB2.
# (§2) To reveal the molecular mechanism of CIB2-mediated mTORC1 modulation, we focused on the TSC-Rheb-mTORC1 axis. We performed an interaction screen of specific proteins including TSC1, TSC2, mTORC1-specific subunit Raptor, mTOR kinase, and Rheb. We used a recently-published quantitative interaction assay known as nanoscale pulldown 2.0 (NanoSPD), in which eGFP-nanobody tag fused to the myosin-HMM domain (nanoTRAP) preferentially migrates to the filopodia (Bird et al., Molecular Biology of the Cell 28, 463-475 (2017)). CIB2-eGFP (bait) migrated efficiently to filopodia in COS-7 cells only in the presence of the nanoTRAP. […] Many downstream and upstream targets of mTORC1 regulate its activity via binding to the mTORC1-specific subunit Raptor. […]
# TSC2 = target: T2, TSC2 (Homo sapiens, UniProt P49815); assay: NanoSPD (nanoTRAP) interaction assay in COS-7 cells, TSC2; assay type: binding; conditions: FLAG-tagged TSC2
# T2 construct: host or cells: COS-7
# T2 sequence (P49815 whole entry): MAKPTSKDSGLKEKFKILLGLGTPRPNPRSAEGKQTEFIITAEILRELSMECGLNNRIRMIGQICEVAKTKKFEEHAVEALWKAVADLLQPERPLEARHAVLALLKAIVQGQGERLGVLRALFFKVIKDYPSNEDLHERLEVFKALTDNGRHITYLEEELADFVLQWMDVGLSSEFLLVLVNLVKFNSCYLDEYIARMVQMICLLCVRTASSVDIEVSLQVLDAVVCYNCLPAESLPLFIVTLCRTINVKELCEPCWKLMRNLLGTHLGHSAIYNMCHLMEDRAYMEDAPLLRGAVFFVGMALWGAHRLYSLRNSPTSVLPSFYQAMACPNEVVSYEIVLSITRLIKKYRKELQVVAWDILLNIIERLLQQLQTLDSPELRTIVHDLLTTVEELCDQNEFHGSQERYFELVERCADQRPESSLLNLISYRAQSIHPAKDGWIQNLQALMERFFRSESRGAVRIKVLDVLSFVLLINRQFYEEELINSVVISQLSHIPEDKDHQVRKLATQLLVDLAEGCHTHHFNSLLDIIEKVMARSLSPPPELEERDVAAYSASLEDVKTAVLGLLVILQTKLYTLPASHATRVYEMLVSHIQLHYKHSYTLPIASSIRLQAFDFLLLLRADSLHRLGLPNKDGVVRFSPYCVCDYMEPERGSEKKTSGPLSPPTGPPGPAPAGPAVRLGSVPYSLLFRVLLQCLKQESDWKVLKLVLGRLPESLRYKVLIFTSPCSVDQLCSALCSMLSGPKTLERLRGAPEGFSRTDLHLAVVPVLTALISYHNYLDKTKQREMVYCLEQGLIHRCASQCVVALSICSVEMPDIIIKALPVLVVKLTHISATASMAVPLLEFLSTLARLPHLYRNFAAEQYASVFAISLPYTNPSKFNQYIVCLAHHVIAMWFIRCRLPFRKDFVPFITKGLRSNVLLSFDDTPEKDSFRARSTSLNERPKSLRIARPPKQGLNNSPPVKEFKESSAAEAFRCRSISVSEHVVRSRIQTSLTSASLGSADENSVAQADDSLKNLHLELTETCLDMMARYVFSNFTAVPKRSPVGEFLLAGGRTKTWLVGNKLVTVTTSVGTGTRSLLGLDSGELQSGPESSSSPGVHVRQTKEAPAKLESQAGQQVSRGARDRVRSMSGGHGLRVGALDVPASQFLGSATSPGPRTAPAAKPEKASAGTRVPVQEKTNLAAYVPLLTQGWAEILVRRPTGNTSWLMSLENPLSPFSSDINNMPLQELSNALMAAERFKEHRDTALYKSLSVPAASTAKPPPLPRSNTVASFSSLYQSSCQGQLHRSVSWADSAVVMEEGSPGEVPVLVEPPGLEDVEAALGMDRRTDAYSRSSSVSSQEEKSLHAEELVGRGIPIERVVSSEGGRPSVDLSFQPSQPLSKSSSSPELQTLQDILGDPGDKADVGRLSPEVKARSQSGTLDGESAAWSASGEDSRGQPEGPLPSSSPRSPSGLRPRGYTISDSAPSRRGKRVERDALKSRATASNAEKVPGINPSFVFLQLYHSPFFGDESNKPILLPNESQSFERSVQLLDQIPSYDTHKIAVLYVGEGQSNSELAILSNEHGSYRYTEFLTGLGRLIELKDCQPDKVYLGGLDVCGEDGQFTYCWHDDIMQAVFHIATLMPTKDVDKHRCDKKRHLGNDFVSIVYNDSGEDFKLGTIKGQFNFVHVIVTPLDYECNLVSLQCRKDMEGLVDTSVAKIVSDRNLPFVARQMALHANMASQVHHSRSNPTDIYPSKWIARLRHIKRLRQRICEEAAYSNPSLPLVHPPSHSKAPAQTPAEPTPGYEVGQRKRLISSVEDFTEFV
# Description: as §1, §2
# Rheb = Rheb (Homo sapiens, UniProt Q15382); assay: Co-IP of tdTomato-CIB2 with HA-GST-Rheb and Rheb variants; assay type: binding; set-up: host or cells: HEK293; conditions: HEK293 lysates
# Rheb, sequence (Q15382 1-181): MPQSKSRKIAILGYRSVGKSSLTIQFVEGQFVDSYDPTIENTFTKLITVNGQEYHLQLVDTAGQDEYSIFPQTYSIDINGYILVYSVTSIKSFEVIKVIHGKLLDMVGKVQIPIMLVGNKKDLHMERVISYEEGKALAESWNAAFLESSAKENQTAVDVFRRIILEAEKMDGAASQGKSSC
# Procedure: FIG. 3. […] Note the stronger interaction between CIB2 and Rheb S20N variant as compared to Q64L variant (GDP vs GTP mimetic, respectively). c, CIB2 preferentially interacts with GDP-loaded Rheb is further confirmed by co-IP experiments of HA-GST-Rheb immobilized on […] and loaded with either GDP or GTPγS, followed by incubation with tdTomato-CIB2 lysate. d, Proposed model of CIB2 function in retinal sensory cells. […] Loss of CIB2 results in reduced autophagy and exacerbated mTORC1 signaling, thus leading to RPE pathology and secondary PR dysfunction. e, f Immunoblots from RPE/choroid lysates from dry AMD or control age-matched donors indicate reduced CIB2 expression, overactive mTORC1 and reduced autophagy, quantified in panel f. Unpaired two-tailed 1 test was used to determine statistical significance. p value of <0.05 (*), <0.01 (**), and <0.001 (***). Please note that one control sample (ψ) is outliner and is highly variant from the rest, Re-quantification, omitting the highly variant control sample, is shown in FIG. 15. g.
# We tested the essentiality of nucleotide binding state of Rheb using co-IP assays. […] Next, we used the Q64L and […] Rheb variants, which mimic the GTP- and GDP-bound state, respectively. […]
molecule,measurement,setting,value
CC1=C(/C=C/C(C)=C\C=C\C(C)=C\C=O)C(C)(C)CCC1 [9-cis retinal],Mice with vacuoles and/or sub-RPE drusen present in the RPE (TEM),[1],3 of 3
same,ERG amplitude differences between groups four weeks post-injection,[2],returned to their baseline levels
same,ERG amplitudes after the treatment paradigm (overall),[2],temporarily but reproducibly improved ERG amplitudes
same,ERG amplitudes four weeks after the 2nd injection,[2],diverged significantly
same,ERG amplitudes two weeks after the 1st injection,[2],indistinguishable from those of vehicle-injected RPE-Cre+ controls
same,ERG amplitudes two weeks after the 2nd injection,[2],no discernable inter-group differences
"CIB2-eGFP: eGFP-tagged human CIB2 used as bait in the NanoSPD assay (protein, left off: large carriers, eGFP-tagged human CIB2 used as bait in the NanoSPD assay) MGNKQTIFTEEQLDNYQDCTFFNKKDILKLHSRFYELAPNLVPMDYRKSPIVHVPMSLIIQMPELRENPFKERIVAAFSEDGEGNLTFNDFVDMFSVLCESAPRELKANYAFKIYDFNTDNFICKEDLELTLARLTKSELDEEEVVLVCDKVIEEADLDGDGKLGFADFEDMIAKAPDFLSTFHIRI",Co-accumulation with TSC1 (NanoSPD),TSC1,did not show any co-accumulation
same,Co-accumulation with TSC2 (NanoSPD),TSC2,did not show any co-accumulation
"tdTomato-CIB2: tdTomato tagged CIB2 expressed in HEK293 cells (tdTomato-C1-mCIB2 construct) (protein, left off: large carriers) MGNKQTIFTEEQLDNYQDCTFFNKKDILKLHARFYELAPNLVPMDYRKSPIVHVPMSLIIQMPELRENPFKERIVEAFSEDGEGNLTFNDFVDMFSVLCESAPRELKANYAFKIYDFNTDNFICKEDLEMTLARLTKSELEEDEVVLVCDKVIEEADLDGDGKLGFADFEDMIAKAPDFLSTFHIRI",Co-immunoprecipitation with HA-GST-Rheb,Rheb,co-immunoprecipitated with HA-GST-Rheb
